Where a name gives a salt, the structure may show the parent alone. Read-outs that look alike come from different tables or passages of the source.
Assays:
[1] = tested on: rabbit eyes with high intraocular pressure induced by magnetic beads; experiment: Model of magnetic bead induced high intraocular pressure rabbit (intraocular pressure >30 mmHg); assay type: in vivo, New Zealand white rabbit; conditions: experiment of Table 13
Source text: Evaluation of the effect of reducing intraocular pressure in model of magnetic bead induced high intraocular pressure rabbit (high intraocular pressure model with intraocular pressure >30 mmHg)
Experimental animal: New Zealand white rabbit, male, body weight 2.0-3.0 kg. New Zealand white rabbits were purchased from Huijun Farm (Changhua, Taiwan) before the experiment and were raised in the Animal Center of National Chiao Tung University.
Experimental method: After weighing and grouping male New Zealand white rabbits, the New Zealand white rabbits were anesthetized with Zoletil 50 0.2 mL/kg. 50 μL of magnetic bead solution (50 mg/mL, magnetic bead size of 10 μm) was injected into the left and right anterior eye chambers of the rabbit under anesthesia to make rabbit eyes become a state of high intraocular pressure. After the injection to the anterior chamber of the eye, a strong […] iron magnet ring was immediately put around the eye for 10-20 minutes to make the magnetic beads completely block the drainage tissue of the aqueous humor. After disinfecting the eyeball with antibiotics, moisturizing eye ointment was provided to restore the eyeball, and the intraocular pressure rising was waited. […] The experiment was conducted for 2 consecutive days.

MYLK4 = MYLK4 (Homo sapiens (Human), UniProt Q86YV6); experiment: Assay for inhibitory effect on MYLK-4, LanthaScreen Eu Kinase Binding Assay
YSK4 = YSK4 (Homo sapiens (Human), UniProt Q56UN5); experiment: Assay for inhibitory effect on YSK-4, Z'-LYTE kinase assay; assay type: biochemical; conditions: ATP 5 μM
Method: C. Assay for Inhibitory Effect on YSK-4
The experimental procedure referred to the Z′-LYTE Screening Protocol and Assay Conditions provided by ThermoFisher Scientific.
C-1. Material Preparation
Peptide/Kinase Mixture was pre-diluted with Kinase Buffer to 2× working concentration.
ATP solution was pre-diluted with Kinase Buffer (50 mM HEPES pH 7.5, 0.01% BRIJ-35, 10 mM MgCl2, 1 mM EGTA) to 4× working concentration.
The development reagent solution is Novel PKC Lipid Mix, which contains 2 mg/mL Phosphatidyl Serine, 0.2 mg/mL DAG in 20 mM HEPES, pH 7.4 and 0.3% CHAPS, and was pre-diluted 10 fold with development buffer.
1. 100 nL of the above diluted test compound and 2.4 μL of kinase buffer were added to a black 384-well plate (Corning, Cat. NO. 4514), then add 5 μL of the peptide/kinase mixture mentioned above was added thereto, and after that 2.5 μL of ATP solution was added thereto, and the culture plate was shaken for 30 seconds.
2. Next, the culture plate was placed at room temperature and incubated for 60 minutes.
3. After that 5 μL of the development reagent solution was added and the culture plate was shaken for 30 seconds in the dark, and then the data was read and analyzed with a fluorescence plate reader.
In addition, for the kinase, the following control group was prepared and placed on the same culture plate as the kinase:
(1) 0% Phosphorylation Control (100% Inhibition Control)
This control yields 100% cleaved peptide in the Development Reaction.
(2) 100% Phosphorylation Control
A synthetically phosphorylated peptide of the same sequence as the peptide substrate is used as the 100% Phosphorylation Control.
The Phosphorylation percent achieved in a specific reaction well (Experimental group) was calculated based on the 0% Phosphorylation Control and 100% Phosphorylation Control.

ROCK1 = ROCK1 (Homo sapiens (Human), UniProt Q13464); experiment: biochemical
[2] = tested on: rabbit eyes with normal intraocular pressure; conditions: eye drop concentration
Method: The maximal effect (Emax) dose evaluation of the intraocular pressure reduction model in normal rabbit
Animals: Male New Zealand white rabbits (n=7/each group);
Administration: 50 μL of the test compound was instilled in the right eye (dosed eye) and 50 μL of the vehicle (without the test compound) in the left eye (control eye) of each experimental animal. The 3 formulation mentioned above were administered once a day for 3 consecutive days.
The intraocular pressure of each animal was measured by Tono-Vet (iCare) before administration (0 hours) and 2, 4, 6 and 8 hours after administration on Day 1 and Day 3.
The maximum magnitude of the reduction in intraocular pressure %=(Intraocular pressure of the control eye−Intraocular pressure of the dosed eye)/Intraocular pressure of the control eye*100
The data presented in this experiment is the data that has removed the unqualified data (white rabbits with an intraocular pressure difference ≥2 mmHg (n=1) in the two eyes on Day 1 and >5 mmHg in the two eyes before the administration on the Day 3 (n=1) have been removed) and removed the rebound high intraocular pressure (n=3).

[3] = tested on: rabbit eyes with normal intraocular pressure; experiment: Evaluation of the effect of decreasing intraocular pressure in a model of rabbit with normal intraocular pressure; assay type: in vivo, New Zealand white rabbit; conditions: for Intraocular pressure difference (mmHg): at time point of maximum effect
Method: Evaluation of the Effect of Decreasing Intraocular Pressure in a Model of Rabbit with Normal Intraocular Pressure
Experimental animal: New Zealand white rabbit, male, weighing more than 2 kg. New Zealand white rabbits were purchased from Huijun Farm (Changhua, Taiwan). After a one-week quarantine period, they were raised in MASTER LABORATORY Co., Ltd under the environmental conditions of 16-22° C., 30-70% relative humidity (RH), 8 hours day/16 hours night.
(1) Evaluation of the Effect of Reducing Intraocular Pressure
After weighing 12 New Zealand white rabbits (2.0-4.0 kg) and grouping them (n=3-6 in each group), the white rabbits were fixed with a wrap.

rabbit eyes = experiment: Safety margin assay (eye irritation, OECD/OCDE 405); conditions: Therapeutic index: 3

Chain of YSK4 (Q56UN5 whole entry): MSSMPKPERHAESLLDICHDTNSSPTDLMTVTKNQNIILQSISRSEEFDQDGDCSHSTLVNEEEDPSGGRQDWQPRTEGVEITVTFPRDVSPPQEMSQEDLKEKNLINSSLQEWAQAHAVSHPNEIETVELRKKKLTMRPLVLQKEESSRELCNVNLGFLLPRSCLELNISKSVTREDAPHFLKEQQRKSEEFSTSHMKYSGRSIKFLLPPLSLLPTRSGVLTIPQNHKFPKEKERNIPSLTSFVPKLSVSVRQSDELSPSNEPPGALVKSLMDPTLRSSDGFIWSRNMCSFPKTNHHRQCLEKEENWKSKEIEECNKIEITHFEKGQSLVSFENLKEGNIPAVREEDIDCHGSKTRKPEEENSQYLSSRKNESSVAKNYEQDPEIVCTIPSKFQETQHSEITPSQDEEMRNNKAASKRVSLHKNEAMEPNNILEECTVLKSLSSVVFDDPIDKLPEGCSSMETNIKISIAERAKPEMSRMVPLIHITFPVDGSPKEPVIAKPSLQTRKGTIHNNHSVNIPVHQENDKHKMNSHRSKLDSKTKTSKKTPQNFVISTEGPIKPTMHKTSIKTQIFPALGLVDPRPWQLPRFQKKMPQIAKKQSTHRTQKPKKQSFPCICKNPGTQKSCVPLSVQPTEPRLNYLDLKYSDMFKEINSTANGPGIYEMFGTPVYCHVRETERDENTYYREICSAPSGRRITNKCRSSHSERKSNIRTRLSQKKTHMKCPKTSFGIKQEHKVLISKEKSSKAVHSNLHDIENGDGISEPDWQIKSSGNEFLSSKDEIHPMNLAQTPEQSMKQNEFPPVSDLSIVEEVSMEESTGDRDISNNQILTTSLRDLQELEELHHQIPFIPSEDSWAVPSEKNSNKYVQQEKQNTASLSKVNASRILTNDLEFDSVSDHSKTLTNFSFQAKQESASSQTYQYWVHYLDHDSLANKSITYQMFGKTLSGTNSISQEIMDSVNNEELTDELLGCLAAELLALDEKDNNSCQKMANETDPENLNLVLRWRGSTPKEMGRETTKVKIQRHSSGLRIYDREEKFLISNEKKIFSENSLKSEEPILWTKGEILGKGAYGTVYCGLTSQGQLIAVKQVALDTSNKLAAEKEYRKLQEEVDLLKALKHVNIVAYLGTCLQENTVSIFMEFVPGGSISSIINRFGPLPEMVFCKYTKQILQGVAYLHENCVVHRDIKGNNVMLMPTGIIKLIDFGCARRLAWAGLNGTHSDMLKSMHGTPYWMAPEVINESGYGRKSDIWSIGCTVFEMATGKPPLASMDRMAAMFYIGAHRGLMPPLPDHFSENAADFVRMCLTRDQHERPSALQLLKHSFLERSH
Chain of ROCK1 (Q13464 whole entry, species assumed): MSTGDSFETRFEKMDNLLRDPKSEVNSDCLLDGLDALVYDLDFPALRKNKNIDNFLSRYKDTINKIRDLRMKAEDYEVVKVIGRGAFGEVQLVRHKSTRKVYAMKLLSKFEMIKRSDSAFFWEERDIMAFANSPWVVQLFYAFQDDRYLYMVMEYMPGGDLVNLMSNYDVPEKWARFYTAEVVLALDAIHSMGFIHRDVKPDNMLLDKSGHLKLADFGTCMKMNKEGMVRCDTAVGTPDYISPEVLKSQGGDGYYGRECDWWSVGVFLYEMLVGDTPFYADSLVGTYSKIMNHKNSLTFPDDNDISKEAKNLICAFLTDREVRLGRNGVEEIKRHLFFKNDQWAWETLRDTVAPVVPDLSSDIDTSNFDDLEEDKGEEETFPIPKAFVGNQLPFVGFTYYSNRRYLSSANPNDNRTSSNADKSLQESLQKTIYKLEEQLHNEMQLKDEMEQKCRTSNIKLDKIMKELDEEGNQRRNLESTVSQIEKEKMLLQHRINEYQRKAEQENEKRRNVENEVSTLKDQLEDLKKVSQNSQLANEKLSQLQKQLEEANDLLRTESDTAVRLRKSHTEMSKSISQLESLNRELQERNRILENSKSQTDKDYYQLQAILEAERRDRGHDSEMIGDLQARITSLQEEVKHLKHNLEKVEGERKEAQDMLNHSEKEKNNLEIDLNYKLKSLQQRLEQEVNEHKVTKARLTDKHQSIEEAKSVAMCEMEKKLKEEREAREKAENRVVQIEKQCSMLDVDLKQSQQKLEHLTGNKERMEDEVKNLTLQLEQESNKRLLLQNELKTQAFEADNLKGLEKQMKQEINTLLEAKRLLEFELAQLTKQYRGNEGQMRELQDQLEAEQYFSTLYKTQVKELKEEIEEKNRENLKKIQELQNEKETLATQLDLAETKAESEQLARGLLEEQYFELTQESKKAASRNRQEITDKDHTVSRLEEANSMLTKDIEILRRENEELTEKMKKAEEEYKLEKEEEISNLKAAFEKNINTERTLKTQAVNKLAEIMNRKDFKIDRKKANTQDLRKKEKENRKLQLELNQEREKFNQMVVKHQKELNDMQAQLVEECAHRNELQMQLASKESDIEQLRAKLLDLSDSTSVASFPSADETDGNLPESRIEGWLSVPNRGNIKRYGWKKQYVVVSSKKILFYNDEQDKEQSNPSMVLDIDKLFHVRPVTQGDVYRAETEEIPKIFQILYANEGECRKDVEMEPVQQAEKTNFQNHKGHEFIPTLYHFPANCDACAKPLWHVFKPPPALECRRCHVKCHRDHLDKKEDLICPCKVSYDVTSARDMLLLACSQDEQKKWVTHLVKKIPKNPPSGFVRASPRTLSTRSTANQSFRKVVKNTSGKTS
Chain of MYLK4 (Q86YV6 whole entry): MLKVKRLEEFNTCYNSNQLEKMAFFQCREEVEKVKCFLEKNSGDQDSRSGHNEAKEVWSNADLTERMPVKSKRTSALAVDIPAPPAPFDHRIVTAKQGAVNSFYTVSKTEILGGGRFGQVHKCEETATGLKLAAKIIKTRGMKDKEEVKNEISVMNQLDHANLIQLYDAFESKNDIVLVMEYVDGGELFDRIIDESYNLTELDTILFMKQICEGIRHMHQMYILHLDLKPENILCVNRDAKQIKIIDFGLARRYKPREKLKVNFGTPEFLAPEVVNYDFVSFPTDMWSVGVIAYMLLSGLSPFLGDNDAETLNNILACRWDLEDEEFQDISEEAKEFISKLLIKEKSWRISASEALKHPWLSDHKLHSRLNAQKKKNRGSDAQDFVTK

Row | Compound | IC50 (MYLK4) [nM] | IC50 (YSK4) [nM] | IC50 (ROCK1) [nM] | maximum effect (Emax) dose in the normal intraocular pressure rabbit model [2] [%] | other results
1 | NCC(C(=O)Nc1ccc(-c2cn[nH]c2)cc1)c1ccccc1 (racemic) [Compound 7, N-(4-(1H-pyrazol-4-yl)phenyl)-3-amino-2-phenylpropanamide dihydrochloride] | 10 to 100 | > 1000 | 1 to 10 | 1 | Maximum intraocular pressure difference (mmHg) ([1]; dose 0.5%): 6.7 ± 1.6 mmHg; Maximum intraocular pressure difference (mmHg) ([1]; dose 1%): 11.8 ± 0.8 mmHg; time point at which maximum effect is achieved ([3]; dose 1%): 4 h; Intraocular pressure difference (mmHg) ([3]; dose 1%): 5.1 mmHg; OECD Score: Chemosis (rabbit eyes): 0; OECD Score: Discharge (rabbit eyes): 1; OECD Score: Redness (rabbit eyes): 1; OECD Score: Total (rabbit eyes): 2
2 | NC[C@@H](C(=O)Nc1ccc2cnccc2c1)c1ccc(CO)cc1 [AR-13503, reference compound] | 100 to 1000 | – | – | – | IC50 (ROCK1; read-out: ROCK1 IC50): < 1 nM
3 | [N-]=[N+]=NC(CN)C(=O)Nc1ccc(-c2cn[nH]c2)cc1 (centres unmarked) [Compound 1, N-(4-(1H-pyrazol-4-yl)phenyl)-3-amino-2-azidopropanamide dihydrochloride] | 100 to 1000 | > 10000 | 100 to 1000 | – | –
4 | NCC(C(=O)Nc1ccc(-c2cn[nH]c2)cc1)n1cc(-c2ccccc2)nn1 (centres unmarked) [Compound 2, dihydrochloride] | 100 to 1000 | > 10000 | 10 to 100 | – | –
5 | NCC(O)C(=O)Nc1ccc(-c2cn[nH]c2)cc1 (centres unmarked) [Compound 3, N-(4-(1H-pyrazol-4-yl)phenyl)-3-amino-2-hydroxypropanamide dihydrochloride] | – | – | 100 to 1000 | – | –
6 | NCC(Oc1ccccc1)C(=O)Nc1ccc(-c2cn[nH]c2)cc1 (centres unmarked) [Compound 4, N-(4-(1H-pyrazol-4-yl)phenyl)-3-amino-2-phenoxypropanamide dihydrochloride] | – | – | 1 to 10 | 1 | time point at which maximum effect is achieved ([3]; dose 1%): 2 h; Intraocular pressure difference (mmHg) ([3]; dose 1%): 4.2 mmHg
7 | NCC(Oc1ccc(C(F)(F)F)cc1)C(=O)Nc1ccc(-c2cn[nH]c2)cc1 (centres unmarked) [Compound 5, N-(4-(1H-pyrazol-4-yl)phenyl)-3-amino-2-(4-(trifluoromethyl)phenoxy)propenamide dihydrochloride] | 100 to 1000 | – | 1 to 10 | 1 | time point at which maximum effect is achieved ([3]; dose 1%): 6 h; Intraocular pressure difference (mmHg) ([3]; dose 1%): 1.5 mmHg
8 | NCC(OCc1ccccc1)C(=O)Nc1ccc(-c2cn[nH]c2)cc1 (centres unmarked) [Compound 6, N-(4-(1H-pyrazol-4-yl)phenyl)-3-amino-2-(benzyloxy) propanamidedihydrochloride] | 100 to 1000 | > 10000 | 10 to 100 | – | –
9 | NCC(C(=O)Nc1ccc(-c2cn[nH]c2)cc1)c1ccc(F)cc1 (centres unmarked) [Compound 8, N-(4-(1H-pyrazol-4-yl)phenyl)-3-amino-2-(4-fluorophenyl) propanamide dihydrochloride] | 10 to 100 | > 1000 | 1 to 10 | 1 | time point at which maximum effect is achieved ([3]; dose 1%): 6 h; Intraocular pressure difference (mmHg) ([3]; dose 1%): 5.2 mmHg
10 | NCC(C(=O)Nc1ccc(-c2cn[nH]c2)cc1)c1ccc(O)cc1 (centres unmarked) [Compound 9, N-(4-(1H-pyrazol-4-yl)phenyl)-3-amino-2-(4-hydroxyphenyl) propanamide dihydrochloride] | – | – | 1 to 10 | – | –
11 | Cc1ccc(C(=O)Oc2ccc(C(CN)C(=O)Nc3ccc(-c4cn[nH]c4)cc3)cc2)c(C)c1 (centres unmarked) [Compound 10, 4-(1-((4-(1H-pyrazol-4-yl)phenyl)amino)-3-amino-1-oxopropan-2-yl)phenyl 2,4-dimethylbenzoate dihydrochloride] | > 1000 | > 10000 | 100 to 1000 | – | –
12 | NCC(C(=O)Nc1ccc(-c2cn[nH]c2)cc1)c1ccc(CO)cc1 (centres unmarked) [Compound 11, N-(4-(1H-pyrazol-4-yl)phenyl)-3-amino-2-(4-(hydroxymethyl)phenyl)propenamide dihydrochloride] | 100 to 1000 | – | 1 to 10 | 0.5 | time point at which maximum effect is achieved ([3]; dose 0.5%): 1 h; Intraocular pressure difference (mmHg) ([3]; dose 0.5%): 2.0 mmHg
13 | Cc1ccc(C(=O)OCc2ccc(C(CN)C(=O)Nc3ccc(-c4cn[nH]c4)cc3)cc2)c(C)c1 (centres unmarked) [Compound 12, 4-(1-((4-(1H-pyrazol-4-yl)phenyl)amino)-3-amino-1-oxopropan-2-yl) benzyl 2,4-dimethylbenzoate dihydrochloride] | 100 to 1000 | > 1000 | 10 to 100 | 0.25 | time point at which maximum effect is achieved ([3]; dose 0.25%): 6 h; Intraocular pressure difference (mmHg) ([3]; dose 0.25%): 2.0 mmHg
14 | NCC(C(=O)Nc1ccc(-c2cn[nH]c2)cc1)c1ccc(C=O)cc1 (centres unmarked) [Compound 13, N-(4-(1H-pyrazol-4-yl)phenyl)-3-amino-2-(4-formylphenyl)propanamide dihydrochloride] | 100 to 1000 | > 1000 | – | – | IC50 (ROCK1; read-out: ROCK1 IC50): < 1 nM
15 | NCC(C(=S)Nc1ccc(-c2cn[nH]c2)cc1)c1ccccc1 (centres unmarked) [Compound 14, N-(4-(1H-pyrazol-4-yl)phenyl)-3-amino-2-phenylpropanethioamide dihydrochloride] | 100 to 1000 | > 1000 | 1 to 10 | 0.5 | time point at which maximum effect is achieved ([3]; dose 0.5%): 6 h; Intraocular pressure difference (mmHg) ([3]; dose 0.5%): 2.5 mmHg
16 | NCC(NC(=S)Nc1ccc(-c2cn[nH]c2)cc1)c1ccccc1 (centres unmarked) [Compound 15, 1-(4-(1H-pyrazol-4-yl)phenyl)-3-(2-amino-1-phenylethyl)thiourea dihydrochloride] | 100 to 1000 | > 10000 | 100 to 1000 | – | –
17 | N#C/N=C(/NCc1ccccc1)Nc1ccc(-c2cn[nH]c2)cc1 [Compound 16, 1-(4-(1H-pyrazol-4-yl)phenyl)-3-benzyl-2-cyanoguanidine hydrochloride] | > 10000 | > 10000 | – | – | IC50 (ROCK1; read-out: ROCK1 IC50): > 10000 nM
18 | NCCN(Cc1ccc(F)cc1)C(=O)c1ccc(-c2cn[nH]c2)cc1 [Compound 17, N-(2-aminoethyl)-N-(4-fluorobenzyl)-4-(1H-pyrazol-4-yl)benzamide dihydrochloride] | > 10000 | > 10000 | 100 to 1000 | – | –
19 | NCC(C(=O)Nc1ccc(Oc2cn[nH]c2)cc1)c1ccccc1 (centres unmarked) [Compound 18, N-(4-((1H-pyrazol-4-yl)oxy)phenyl)-3-amino-2-phenylpropanamide dihydrochloride] | – | – | – | – | IC50 (ROCK1; read-out: ROCK1 IC50): > 10000 nM
20 | NCC(C(=O)Nc1ccc(-c2cn[nH]c2)cc1F)c1ccccc1 (centres unmarked) [Compound 19, 3-amino-N-(2-fluoro-4-(1H-pyrazol-4-yl)phenyl)-2-phenylpropanamide dihydrochloride] | 100 to 1000 | > 1000 | 10 to 100 | – | –
21 | NC[C@H](C(=O)Nc1ccc(-c2cn[nH]c2)cc1)c1ccccc1 [Compound 21, (R)—N-(4-(1H-pyrazol-4-yl)phenyl)-3-amino-2-phenylpropanamide dihydrochloride] | 100 to 1000 | – | 100 to 1000 | – | time point at which maximum effect is achieved ([3]; dose 0.03%): 8 h; Intraocular pressure difference (mmHg) ([3]; dose 0.03%): 1.3 mmHg

Reference: patent US11608319B2, “Beta-amino acid derivative, kinase inhibitor and pharmaceutical composition containing the same, and method for performing an in vivo related application that benefits from the inhibition of a kinase” (Industrial Technology Research Institute, priority 2019, dated 2023)
